Read-outs that look alike come from different tables or passages of the source.
Legend:
DENV-1 = assay: Viral yield assay against DENV-1 in Vero cells; type: cell-based; details: Dengue virus
In short: (§1)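 Yield reduction, Vero; MOI 0.1; compound vs DMSO; 37° C; harvest 48 h p.i.; titer on Vero; EC50 fitted. Other serotypes run the same way.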

[1] = system: Dengue-2 (Strain New Guinea C); assay: Viral yield assay against Dengue-2 in Vero cells; type: cell-based, Dengue virus; details: Dengue virus, read-out: Activity (EC50 in μM) DENV-2
In short: as §1

DENV-3 = assay: Viral yield assay against DENV-3 in Vero cells; type: cell-based; details: Dengue virus
In short: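 Progeny virus from compound-treated Vero monolayers infected at an MOI of 0.1 is collected after 48 h at 37° C and titered on Vero cells. DMSO serves as control.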

DENV-4 = assay: Viral yield assay against DENV-4 in Vero cells; type: cell-based; details: Dengue virus
In short: as §1

[2] = DENV2, viral yield assay, Vero cells, MOI 0.1, 48 hours post infection

Structure (SMILES)	EC50 (DENV-1; DENV1, viral yield assay) [µM]	EC50 [1, 2] [µM]	EC50 (DENV-3; DENV3, viral yield assay) [µM]	EC50 (DENV-4; DENV4, viral yield assay) [µM]	EC50 (DENV-1; DENV1) [µM]	EC50 ([1]; DENV2, Vero cells) [µM]	EC50 (DENV-3; DENV3) [µM]	EC50 (DENV-4; DENV4) [µM]	EC50 ([1]; DENV2, Vero, 48 h) [µM]
Nc1c(C(=O)Nc2cccc(F)c2)sc2nc(-c3ccc(F)cc3)ccc12 [Compound 489, 3-amino-N-(3-fluroophenyl)-6-(4-fluroophenyl)thieno[2,3-b]pyridine-2-carboxamide]	< 5	< 5	< 5	< 5					
Nc1c(C(=O)Nc2nnc(-c3ccccc3)s2)sc2nc3c(cc12)C(=O)CCCC3 [Compound 328]	< 5	< 5	5 to 25	< 5					
Nc1c(C(=O)Nc2ccc(Cl)cn2)sc2nc(-c3ccc(Cl)cc3)ccc12 [Compound 352, 3-amino-6-(4-chlorophenyl)-N-(5-chloro-2-pyridyl)thieno [2,3-b]pyridine-2-carboxamide]	< 5	< 5	< 5	< 5					
CNCC(=O)Nc1c(C(=O)Nc2cccc(C(F)(F)F)c2)sc2nc(-c3cccs3)ccc12 [Compound 307, 3-[[2-(methylamino)acetyl]amino]-6-(2-thienyl)-N-[3-(trifluoromethyl)phenyl]thieno[2,3-b]pyridine-2-carboxamide]					< 5	< 5	< 5	< 5	
Nc1c(C(=O)Nc2ccc(F)c(F)c2)sc2nc(-c3ccc(F)cc3)ccc12 [Compound 615, 3-amino-N-(3,4-difluorophenyl)-6-(4-fluorophenyl)thieno[2,3-b]pyridine-2-carboxamide]	< 5	< 5	< 5	< 5					
COc1ccc(-c2ccc3c(N)c(C(=O)Nc4ccc(Cl)cc4F)sc3n2)cc1OC [Compound 534, 3-amino-N-(4-chloro-2-fluoro-phenyl)-6-(3,4-dimethoxyphenyl)thieno[2,3-b] pyridine-2-carboxamide]	< 5	< 5	< 5	< 5					
COc1ccc(NC(=O)c2sc3nc(-c4cccc(OC)c4)ccc3c2N)cc1 [Compound 506, 3-amino-6-(3-methoxyphenyl)-N-(4-methoxyphenyl)thieno[2,3-b]pyridine-2-carboxamide]	< 5	< 5	< 5	< 5					
Nc1c(C(=O)Nc2ccc(Cl)nc2)sc2nc(-c3ccc(Cl)cc3)ccc12 [Compound 353, 3-amino-6-(4-chlorophenyl)-N-(6-chloro-3-pyridyl)thieno [2,3-b]pyridine-2-carboxamide]	< 5	< 5	< 5	< 5					
CN(C(=O)c1sc2nc(-c3cccs3)ccc2c1N)c1cccc(C(F)(F)F)c1 [Compound 322, 3-amino-N-methyl-6-(2-thienyl)-N-[3-(trifluoromethyl)phenyl]thieno[2,3-b]pyridine-2-carboxamide]	< 5	< 5	< 5	< 5					
Nc1c(C(=O)Nc2ccc(F)c(F)c2)sc2nc(-c3cc(Cl)ccc3Cl)ccc12 [Compound 630, 3-amino-6-(2,5-dichlorophenyl)-N-(3,4-difluorophenyl)thieno[2,3-b]pyridine-2-carboxamide]	< 5	< 5	< 5	< 5					
C=CCSc1ccc(NC(=O)c2sc3nc(-c4cccc(OC)c4)ccc3c2N)cc1 [Compound 542, N-(4-allylsulfanylphenyl)-3-amino-6-(3-methoxyphenyl)thieno[2,3-b]pyridine-2-carboxamide]	< 5	< 5	< 5	< 5					
Cc1ccc(NC(=O)c2sc3nc(-c4cccs4)ccc3c2N)cc1F [Compound 458, 3-amino-N-(3-fluoro-4-methyl-phenyl)-6-(2-thienyl)thieno [2,3-b]pyridine-2-carboxamide]	< 5	< 5	< 5	< 5					
O=C(O)CNc1c(C(=O)Nc2cccc(C(F)(F)F)c2)sc2nc(-c3cccs3)ccc12 [Compound 305, 2-[[6-(2-thienyl)-2-[[3-(trifluoromethyl)phenyl]carbamoyl]thieno[2,3-b]pyridin-3-yl]amino]acetic acid]					< 5	< 5	5 to 25	< 5	
Nc1c(C(=O)Nc2ccc(Br)cc2F)sc2nc(-c3ccc(F)cc3)ccc12 [Compound 616, 3-amino-N-(4-bromo-2-fluoro-phenyl)-6-(4-fluorophenyl)thieno[2,3-b]pyridine-2-carboxamide]	< 5	< 5	< 5	< 5					
COc1ccc(-c2ccc3c(N)c(C(=O)Nc4ccc(F)cc4)sc3n2)cc1 [Compound 491, 3-amino-N-(4-fluorophenyl)-6-(4-methoxyphenyl)thieno[2,3-b]pyridine-2-carboxamide]	> 25		5 to 25	< 5					< 5
COc1cccc(-c2ccc3c(N)c(C(=O)Nc4ccc(Br)c(C)c4)sc3n2)c1 [Compound 550, 3-amino-N-(4-bromo-3-methyl-phenyl)-6-(3-methoxyphenyl)thieno[2,3-b] pyridine-2-carboxamide]	< 5	< 5	< 5	< 5					
Nc1c(C(=O)Nc2ccc(OC(F)(F)F)cc2)sc2nc(-c3cccs3)ccc12 [Compound 428, 3-amino-6-(2-thienyl)-N-[4-(trifluoromethoxy)phenyl]thieno[2,3-b] pyridine-2-carboxamide]	< 5	< 5	< 5	< 5					
Nc1c(C(=O)Nc2nnc(-c3ccccc3)s2)sc2nc3c(cc12)C(F)CCCC3 (centres unmarked) [Compound 330]	5 to 25	< 5	5 to 25	5 to 25					
Cc1ccc(NC(=O)c2sc3nc(-c4ccc(F)cc4)ccc3c2N)cc1F [Compound 612, 3-amino-N-(3-fluoro-4-methyl-phenyl)-6-(4-fluorophenyl)thieno[2,3-b]pyridine-2-carboxamide]	< 5	< 5	< 5	< 5					
Nc1c(C(=O)Nc2ccc(Br)cc2)sc2nc(-c3ccc(Cl)cc3)ccc12 [Compound 425]	< 5	< 5	< 5	< 5					
Nc1c(C(=O)Nc2ccc3c(c2)OCCO3)sc2nc(-c3cccs3)ccc12 [Compound 415, 3-amino-N-(2,3-dihydro-1,4-benzodioxin-6-yl)-6-(2-thienyl)thieno[2,3-b] pyridine-2-carboxamide]	< 5	< 5	< 5	< 5					
COc1ccc(-c2ccc3c(N)c(C(=O)Nc4cccc(C(F)(F)F)c4)sc3n2)cc1OC [Compound 476, 3-amino-6-(3,4-dimethoxyphenyl)-N-[3-(trifluoromethyl)phenyl]thieno[2,3-b] pyridine-2-carboxamide]	< 5	< 5	< 5	< 5					
COc1cccc(-c2ccc3c(N)c(C(=O)Nc4cccc(C)c4)sc3n2)c1 [Compound 547, 3-amino-6-(3-mehtoxyphenyl)-N-(m-tolyl)thieno[2,3-b]pyridine-2-carboxamide]	< 5	< 5	< 5	< 5					
Nc1c(C(=O)Nc2ccc(C(F)(F)F)cc2)sc2nc(-c3cccs3)ccc12 [Compound 459, 3-amino-6-(2-thienyl)-N-[4-(trifluoromethyl)phenyl]thieno[2,3-b] pyridine-2-carboxamide]	< 5	< 5	< 5	< 5					
Cc1ccc2c(N)c(C(=O)Nc3nnc(-c4ccccc4)s3)sc2n1 [Compound 284, 3-amino-6-methyl-N-(5-phenyl-1,3,4-thiadiazol-2-yl)thieno[2,3-b]pyridine-2-carboxamide]	< 5	< 5	5 to 25	> 25					
Nc1c(C(=O)Nc2ccc(OC(F)(F)F)cc2)sc2nc(-c3ccncc3)ccc12 [Compound 417, 3-amino-6-(4-pyridyl)-N-[4-(trifluoromethoxy)phenyl]thieno[2,3-b] pyridine-2-carboxamide]	< 5	< 5	< 5	< 5					
COc1ccc(-c2ccc3c(N)c(C(=O)Nc4ccc(C)cc4C)sc3n2)cc1OC [Compound 530, 3-amino-6-(3,4-dimethoxyphenyl)-N-(2,4-dimethylphenyl)thieno[2,3-b]pyridine-2-carboxamide]	< 5	< 5	< 5	< 5					
Nc1c(C(=O)Nc2cccc(C(F)(F)F)c2)sc2nc(-c3ccc4c(c3)OCO4)ccc12 [Compound 453, 3-amino-6-(1,3-benzodioxol-5-yl)-N-[3-(trifluoromethyl)phenyl]thieno[2,3-b] pyridine-2-carboxamide]	< 5	< 5	< 5	< 5					
O=C(O)CNc1c(C(=O)Nc2nnc(-c3ccccc3)s2)sc2nc3c(cc12)CCCCC3 [Compound 293, 2-((2-((5-phenyl-1,3,4-thiadiazol-2-yl)carbamoyl)-6,7,8,9-tetrahydro-5H-cyclohepta[b]thieno[3,2-e]pyridin-3-yl)amino)acetic acid]					< 5	< 5	< 5	< 5	

Reference: US20170121344A1 (Siga Technologies, Inc., priority 2009, published 2017)
